Earlier results on two molecules are cited in US20020086070A1, “Anti-inflammatory and connective tissue repair formulations” (priority 2000, published 2002).

The test system of one data set is COX-2 over COX-1. To be noted: specificity for COX-2 over COX-1.
In data set [1] the test system is arachidonic acid-induced inflammatory ear edema. To be noted: mice.
The next data set deals with skin tumor formation. Particulars: following initiation with a chemical challenge.
Data set [2] has as its target cyclooxygenase-2 induction. To be noted: TNFalpha-dependent induction; read-out: IC(50) for suppression of TNFalpha-dependent cyclooxygenase-2 induction.

As to `CC(=O)Oc1ccccc1C(=O)O` [aspirin], the COX-2 specificity in the data set on COX-2 over COX-1 is given as 0.6.

On to `CC(C)=CCC1=C(O)[C@](O)(CC=C(C)C)C(=O)C(C(=O)CC(C)C)=C1O` [humulon], for which, in data set [1], the “inhibition of arachidonic acid-induced inflammatory ear edema” value is given as “inhibited”. Besides, in the data set on skin tumor formation, the “inhibition of skin tumor formation” value is on record as “inhibited skin tumor formation”. The IC50 in data set [2] was about 30 nM.
